Data reported in patent publication US20080305186A1, “Method and Composition for the Treatment of Cardiac Hypertrophy” (BOARD OF REGENTS, THE UNIVERSITY OF TEXAS SYSTEM, priority 2007, published 2008).

Test system: cardiac gene expression
Assay: Microarray analysis of cardiac gene expression (GeneChip Mouse Genome 430 2.0)
Format: in vivo, mice
Protocol: Microarray Sample Preparation and Analysis. Animal hearts were rapidly removed, and the atria and right ventricles were cut and immediately plunged into TRIzol Reagent (Life Technologies). Total RNA was isolated following the manufacturer's instructions, purified by phenol-chloroform extraction and then ethanol precipitation, and 20 μg further processed for microarray analysis. Briefly, cDNA synthesis, in vitro transcription, and labeling and fragmentation to produce the oligonucleotide probes were performed as instructed by the GeneChip manufacturer (Affymetrix). The probes were first hybridized to a test array (Affymetrix) and then to the GeneChip Mouse Genome 430 2.0 Array, using the GeneChip Hybridization Oven 640. The chips were washed in a GeneChip Fluidics Station 450 (Affymetrix), and the results were visualized with a GeneChip G7 scanner (Affymetrix). RMA normalization, pairwise comparisons, Student's t test and Benjamini and Hochberg correction were subsequently performed using GeneSifter (VizX Labs, Seattle, Wash.) and Spotfire DecisionSite 8.3 (Spotfire, Inc., Somerville, Mass.).
Effects on Gene Expression Profile. […] One mouse heart was used for each array, and was performed in triplicate, generating a total of 12 arrays. GeneSifter was used to perform RMA normalization, pairwise comparisons of averaged signal intensity values, and Student's t-test with Benjamini and Hochberg correction, and Spotfire was used to perform pairwise comparisons. […] Additionally, genes that were altered between any two N or cardiac hypertrophy samples were removed, as these alterations most likely represented normal variations between mice.

[1] = CH vs drug-treated isoproterenol mice
[2] = heart, drug + isoproterenol vs isoproterenol only
[3] = mouse heart, vs isoproterenol only (CH), CH vs normal 2.1
[4] = mouse heart, vs isoproterenol only (CH), CH vs normal 2.2
[5] = mouse heart, vs isoproterenol only (CH), CH vs normal 2.6
[6] = mouse heart, vs isoproterenol only (CH), CH vs normal 2.7
[7] = mouse heart, vs isoproterenol only (CH), CH vs normal 2.9
[8] = mouse heart, vs isoproterenol only (CH), CH vs normal 3.2
[9] = mouse heart, vs isoproterenol only (CH), CH vs normal 3.3
[10] = mouse heart, vs isoproterenol only (CH), CH vs normal 3.7
[11] = mouse heart, vs isoproterenol only (CH), CH vs normal 4.9

NC(=O)N1c2ccccc2C=Cc2ccccc21 [carbamazepine] was tested, and the “Number of Altered Genes, Average FC (1.5-fold)” value [1] was 709, the “Number of Altered Genes, Average FC (2-fold)” value [1] was 1 and the “Number of Altered Genes, Minus disease variability” value [1] was 1. The “Number of Altered Genes, Minus natural variability” value [1] was 1, the “Number of Altered Genes, Reproducible” value [1] was 1 and the “Number of Altered Genes, Student's t test” value [1] was 306. For the same compound, the “Number of Altered Genes, Correction” value (CH vs drug-treated isoproterenol mice, Benjamini and Hochberg) was 1, the “Number of Altered Genes, Disease-specific” value (CH vs drug-treated isoproterenol mice, of 779 genes altered N vs CH, altered in the reverse direction) was 1 and the “Cytokine inducible SH2-containing protein 3 (Socs3), Microarray FC” value [2] was −2.4 FC. The “GATA binding protein 4 (Gata4), Microarray FC” value [2] was 2.1 FC, the “Lipocalin 2 (Lcn2), Microarray FC” value [2] was −1.6 FC and the “NADPH oxidase 4 (Nox4), Microarray FC” value [2] was −1.9 FC. For the same compound, the “Oncostatin receptor (Osmr), Microarray FC” value [2] was −1.7 FC, the “SET and MYND domain containing 1 (Smyd1), Microarray FC” value [2] was 1.7 FC and the “Serine protease inhibitor 2-2 (Spi2-2) (Serpin3n), Microarray FC” value [2] was −2.3 FC. The “FC Procollagen, type IV, alpha 1 (Col4a1), AW536690” value (mouse heart, vs isoproterenol only (CH), CH vs normal 1.6) was −1.8 fold, the “FC Fatty acid binding protein 4, adipocyte (Fabp4), BC002148” value (mouse heart, vs isoproterenol only (CH), CH vs normal 1.8) was −1.6 fold and the “FC Adenosine deaminase (Ada), NM_007398” value [3] was −2.2 fold. For the same compound, the “FC EST, AV032095” value [3] was −1.6 fold, the “FC EST, BE630073” value [3] was −1.6 fold and the “FC Amine oxidase, copper containing 3 (Aoc3), NM_009675” value [4] was −1.8 fold. The “FC CD14 antigen (CD14), NM_009841” value [4] was −1.6 fold, the “FC Flavin containing monooxygenase 1 (Fmo1), BC011229” value [4] was −1.6 fold and the “FC cDNA, BG075321” value [4] was −1.6 fold. The “FC A disintegrin-like and metallopeptidase (reprolysin type) with thrombospondin (ADAMTS)-like 2 (Adamtsl2), AK020831” value (mouse heart, vs isoproterenol only (CH), CH vs normal 2.3) was −1.6 fold, the “FC Purine-nucleoside phosphorylase (Pnp), BC003788” value (mouse heart, vs isoproterenol only (CH), CH vs normal 2.4) was −1.7 fold and the “FC ESTs, AI447357” value (mouse heart, vs isoproterenol only (CH), CH vs normal 2.5) was −1.9 fold. The “FC Dipeptidase 1 (Dpep1), NM_007876” value [5] was −1.6 fold, the “FC Fc fragment of IgG, low affinity IIIa, receptor (Fcrl3), BC027310” value [5] was −1.6 fold and the “FC cDNA, AW552579” value [5] was −1.7 fold. The “FC G7e protein, NM_033075” value [6] was −1.6 fold, the “FC Mitogen activated protein kinase kinase kinase 8 (Map3k8), NM_007746” value [6] was −1.7 fold and the “FC cDNA, BC019553” value [6] was −2.2 fold. The “FC Decorin (Dcn), AV321547” value [7] was −1.6 fold, the “FC Glycoprotein (transmembrane) nmb (Gpnmb), NM_053110” value [7] was −1.5 fold and the “FC C-type lectin domain family 1, member a (Clec1a), BB035924” value (mouse heart, vs isoproterenol only (CH), CH vs normal 3.1) was −1.6 fold. The “FC CUB and zona pellucida-like domains 1 (Cuzd1), NM_008411” value [8] was −1.5 fold, the “FC G7e protein, BC027314” value [8] was −2.2 fold and the “FC Serine (or cysteine) peptidase inhibitor, clade A, member 3G (Serpina3g), BC002065” value [8] was −1.7 fold. For the same compound, the “FC cDNA, BG297038” value [8] was −2.9 fold, the “FC Pyruvate dehydrogenase kinase 4 (Pdk4), NM_013743” value [9] was 1.7 fold and the “FC cDNA, AK012898” value [9] was −2.0 fold. For the same compound, the “FC TRAF2 and K interacting kinase (Tnik), AI117633” value (mouse heart, vs isoproterenol only (CH), CH vs normal 3.4) was −1.7 fold, the “FC Interleukin-1 receptor-associated kinase 3 (Irak3), AV228493” value (mouse heart, vs isoproterenol only (CH), CH vs normal 3.5) was −1.6 fold and the “FC Mcf.2 transforming sequee-like (Mcf21), AV293368” value [10] was −1.5 fold. The “FC cDNA, BE956710” value [10] was −1.7 fold, the “FC Lipopolysaccharide binding protein (Lbp), NM_008489” value (mouse heart, vs isoproterenol only (CH), CH vs normal 3.8) was −1.8 fold and the “FC Nuclear factor of kappa light polypeptide gene enhaer in B-cells inhibitor, zeta (Nfkbiz), NM_030612” value (mouse heart, vs isoproterenol only (CH), CH vs normal 3.9) was −1.6 fold. For the same compound, the “FC Colony stimulating factor 2 receptor, beta 2, low-affinity (granulocyte-macrophage) (Csf2rb2), NM_007781” value (mouse heart, vs isoproterenol only (CH), CH vs normal 4.1) was −1.8 fold, the “FC NADPH oxidase 4 (Nox4), BC021378” value (mouse heart, vs isoproterenol only (CH), CH vs normal 4.3) was −1.9 fold and the “FC Calcium-sensitive chloride conductae protein-1 (Clca1), AF047838” value (mouse heart, vs isoproterenol only (CH), CH vs normal 4.4) was −1.8 fold. The “FC cDNA, AK008807” value (mouse heart, vs isoproterenol only (CH), CH vs normal 4.5) was −1.7 fold, the “FC Serum amyloid A 3 (Saa3), NM_011315” value (mouse heart, vs isoproterenol only (CH), CH vs normal 4.7) was −2.0 fold and the “FC Caer related gene-liver 1 (CRG-L1), AF282864” value [11] was −1.5 fold. The “FC Calcium/calmodulin-dependent protein kinase II, beta (Camk2b), BG862223” value [11] was −2.8 fold, the “FC Oostatin receptor (Osmr), NM_011019” value (mouse heart, vs isoproterenol only (CH), CH vs normal 5.1) was −1.7 fold and the “FC Cytokine inducible SH2-containing protein 3 (Socs3), BB241535” value (mouse heart, vs isoproterenol only (CH), CH vs normal 6.0) was −2.3 fold.
